# Tests used:
# S aureus Cowan I = assay: E-test antimicrobial susceptibility test (MIC); format: cell-based; settings: Staphylococcus aureus, inhibiting bacteria in 1 ml broth
# Protocol: (§1) The drug release rate was analyzed using UV spectroscopy (Shimadzu 1650PC, Shimadzu Corp.) by immersing plates that had been soaked in Amoxicillin and Cephalothin for 15 minutes, 1 hour and 24 hours in 8.2 ml of either water or PBS at room temperature. The release was measured (using a wavelength Of 230 nm for Amoxicillin and 239 nm for Cephalothin) in water for 1 hour to investigate the initial release and then in PBS for 22 hours to investigate the slow release after the initial burst. The liquid was circulated through a cell in which the drug concentration was detected. After the release in PBS, the HA coatings soaked for 24 hours in the antibiotic solutions were dissolved by lowering the pH of the PBS to 2 by addition of hydrochloric acid. This was done to release and measure the amount of remaining drugs still present in the coatings after 22 hours of release. To relate the antibiotics concentration released to the antibacterial effect, antimicrobial susceptibility tests (E-test, AB Biodisk, Sweden) for Amoxicillin and Cephalothin was performed on strain S aureus Cowan I and on Staphylococcus epidermidis Kx293A1 (Department of Microbiology, Swedish University of Agricultural Sciences).
# (§2) Table 1 presents the concentration of Amoxicillin and Cephalothin that has to be present to ensure killing of S. aureus and S. epidermidis, as divulged from the antimicrobial susceptibility tests. Table 1: Result from E-test for antimicrobial susceptibility testing, determining the minimum inhibitory concentration (MIC) of antimicrobial agents against microorganisms (inhibiting bacteria in 1 ml broth).
# [1] = system: Staphylococcus epidermidis Kx293A1; assay: E-test antimicrobial susceptibility test (MIC); format: cell-based; settings: inhibiting bacteria in 1 ml broth
# Protocol: as §1, §2
# [2] = format: physicochemical; settings: for anticipated release time: assuming constant release rate until coatings are emptied, including the 22 hours of release before hydrochloric acid treatment; for drug release rate: from HA coating in PBS at room temperature, between 2 and 22 hours after start; for duration of initial rapid drug release (burst): from HA coatings, loading times 15 minutes, 1 hour, 24 hours
# Protocol: The drug loading was performed at room temperature in 50 ml conical test tubes for four different soaking times between 15 minutes and 24 hours. […] The liquid was circulated through a cell in which the drug concentration was detected. After the release in PBS, the HA coatings soaked for 24 hours in the antibiotic solutions were dissolved by lowering the pH of the PBS to 2 by addition of hydrochloric acid. This was done to release and measure the amount of remaining drugs still present in the coatings after 22 hours of release. To relate the antibiotics concentration released to the antibacterial effect, antimicrobial susceptibility tests (E-test, AB Biodisk, Sweden) for Amoxicillin and Cephalothin was performed on strain S aureus Cowan I and on Staphylococcus epidermidis Kx293A1 (Department of Microbiology, Swedish University of Agricultural Sciences).
# [3] = Release and content of Amoxicillin from HA coatings loaded with pamidronate and Amoxicillin (methods of Examples 8 and 9); format: physicochemical
# [4] = system: Staphylococcus aureus strain Cowan I; assay: Inhibition zones of bacterial growth in bacteria agar around antibiotic loaded HA coated plates; format: cell-based; settings: loading 15 minutes to 24 hours; release in PBS 15 minutes to 24 hours before agar; incubated 37°C 18 hours
# Protocol: The incorporation of antibiotics was preformed by soaking the HA coated plates in 10 ml PBS containing 50 µg of either Tobramycin, Cephalotin, Amoxicillin or Gentamicin sulfate (Sigma-Aldrich Company Ltd.). The drug loading was performed at room temperature in 50 ml conical test tubes for four different soaking times between 15 minutes and 24 hours.
# After incorporation of antibiotics, the plates were immediately transferred to new tubes filled with 40 ml of PBS preheated to 37°C in order to let the incorporated drug leak out for various time intervals before monitoring the antibacterial effect of the drug remaining in the coatings. After either 15 minutes, 60 minutes or 24 hours, the plates were removed and dried at room temperature for further analysis of the remaining antibacterial effect in the Staphylococcus aureus agar described below.
# A Mueller-Hinton broth (Merck) containing 0.8% Agar was prepared by dissolving the powder in de-ionized water and sterilized by autoclaving at 121°C for 20 minutes. The broth was then tempered to 40°C in a water bath. Staphylococcus aureus strain Cowan I (NCTC 8530, National Collection of Type Cultures, London, UK) in a PBS suspension was added directly to the broth giving it a final optical density at 600 nm of 0.005 (corresponding to approximately 5x10^6 cfu/ml). The mixture was mixed to homogenously distribute the bacteria in the substrate and then transferred to Petri dishes. The dishes were filled to a depth of 10 mm (50 ml) with the bacterial broth. As the agar stiffened at room temperature, the titanium plates were stuck down in the agar at a right angle to the surface, having both sides in contact with the bacterial substrate. The Petri dishes were then incubated at 37°C for 18 hours. A HA coated reference plate without any antibiotics was also tested. The inhibition zones of bacterial growth formed around the plates were photographed by an imaging instrument (Geldoc 2000, Bio-Rad).
Molecule,MIC (S aureus Cowan I) [mg/L],MIC [1] [mg/L],anticipated release time [2] [h],drug release rate [2] [µg/h·cm^2],duration of initial rapid drug release (burst) [2],"time for which a therapeutically significant dose of amoxicillin was released ([3]; Example 10: co-loading, 10 ml PBS, 6 mg pamidronate disodium salt hydrate, 100 µg Amoxicillin, 50 °C, 25 minutes, rinsed 5 minutes in PBS) [days]","time for which a therapeutically significant dose of amoxicillin was released ([3]; Example 11: sequential loading, 7 mg pamidronate 40°C 12 minutes, then 70 µg Amoxicillin 40°C 15 minutes, soaked in PBS 7 minutes) [days]","antibacterial effect (inhibition zone, clear agar closest to the plates) [4]",amount of antibiotics remaining in the coating after 22 hours of release ([2]; buffer)
CC1(C)S[C@@H]2[C@H](NC(=O)[C@H](N)c3ccc(O)cc3)C(=O)N2[C@H]1C(=O)O [Amoxicillin],0.064,0.19,27,0.42±0.10,less than 10 minutes,7,6,the antibiotic effect was preserved,
CC(=O)OCC1=C(C(=O)O)N2C(=O)[C@@H](NC(=O)Cc3cccs3)[C@H]2SC1 [Cephalothin],0.064,0.064,63,0.22±0.06,less than 10 minutes,,,the antibiotic effect was preserved,~ 18 µg
NC[C@H]1O[C@H](O[C@H]2[C@H](O)[C@@H](O[C@H]3O[C@H](CO)[C@@H](O)[C@H](N)[C@H]3O)[C@H](N)C[C@@H]2N)[C@H](N)C[C@@H]1O [Tobramycin],,,,,,,,the antibiotic effect was preserved,
Gentamicin sulfate,,,,,,,,the antibiotic effect was preserved,

# Reference: patent EP2249889B1, “CRYSTALLINE SURGICAL IMPLANT COMPOSITE MATERIALS AND KITS AND METHODS OF MANUFACTURE” (Sandvik Intellectual Property AB, priority 2008, dated 2009)
